Where two headings read alike, the source gives them in different places.
Assays:
[1] = Body weight of ovarian cancer transplanted nude mice; assay type: in vivo, nude mice BALB/c-nu; conditions: i.v.
Protocol: (§1) Starting from 11 days after tumor implant, the animals are administered the test compounds i.v. The animals are weighed every two days, and the tumor volume is measured. After 24 days from the beginning of test compound administration, the animals are killed and the tumors are isolated and weighed.

HT-29 Cell line = assay: SRB cell multiplication test, sensitizing to cytotoxic antitumor drugs
Protocol: 3.2 Cell Lines: HT-29 Cell line (from ATCC).
Test Protocol: The effects of the compounds on cancer cell multiplication was measured using Sulforhodamine B (SRB). Specifically, log phase cells are inoculated into the holes of 96-hole culture plates, allowed to grow using the wall-adhesion procedure at 37° C. under 5% CO2. The test compound at 9 different concentrations were added, each concentration in duplicate, with appropriate saline water and cell-less controls. The cells are cultured for a further 72 hours, and fixed with TCA, and SRB is added for staining, and washed, and air-dried. After adding the Tris solution, the OD value was measured at 510 nm using a Spectra Max 190. The rate of inhibition is calculated according to the formula below: Rate of Inhibition=(ODcontrol−ODdrug)/ODcontrol×100%.
The IC50 is calculated based on the above ratios.

human ovarian cancer = assay: Human ovarian cancer transplanted nude mice, combination with Gemcitabine; assay type: in vivo, nude mice BALB/c-nu
Protocol: The compound used for this test is XC608, shown above, and XC608-Cl is the chloride salt of XC608, 090208-1, also a whitish powder. AZD7762 is a yellow powder.
All of the above are dissolved in 5% glucose injectible solution and diluted to suitable concentrations. Control: Gemcitabine is obtained from Jiangsu Haosen Pharmaceuticals Co., Ltd., also dissolved to suitable concentration in saline solution.
Test animals: 30 nude mice BALB/c-nu, female, bw 18-20 g, supplied by B&K Universal Group Limited, Shanghai, China. Cancer cell lines: the human ovarian cell line is from a commercial source, transplanted onto nude mice, which were maintained by Shanghai Pharmaceutical Industry Research Institute.
The tumors from the ovarian cancer carrying nude mice is isolated and cut into 1-mm^3 pieces, which are then implanted subcutaneously to the test nude mice. After 10 days, the tumors grow to a size of about 0.1 cm^3. The test mice are randomly divided into 5 groups of six animals.
as §1
The tumor volume (TV) is measured and calculated.
Relative Tumor volume (RTV) is Vt/V0, wherein Vt is the tumor volume at the measurement time, while V0 is the tumor volume when drug administration was started.
A compound's antitumor activity is measured by the RTV growth rate, T/C (%), which is calculated as: T/C=Treatment RTC/Control Group RTC×100%.
If TC(%) is more than 60, then the treatment is considered to have no effect. Only when the TC is less than 60, an the difference is statistically significant would the treatment be considered to be effective.
Another measurement is rate of tumor inhibition, which is IR (%)=(control group tumor weight−treatment group tumor weight)/control group tumor weight×100%.

Human colon cancer HT-99 = Human colon cancer HT-99 transplanted nude mice; assay type: in vivo; conditions: GCT 20 mg/kg ip, compound 1 15 mg/kg iv
Protocol: Some of the above compounds are tested in vitro or in vivo for their anti-cancer or anti-tumor activities, as well as cellular toxicity tests using SRB and MTT methods. The in vitro anti-cancer effects on human cancer HT-29 and mouse lung cancer cell 3LL are summarized in Table 1, and the effects on treating transplanted human colon cancer […] on nude mice are summarized in Table 2.

**Q.** What does the source list for `Nc1ccn([C@@H]2O[C@H](CO)[C@@H](O)C2(F)F)c(=O)n1` [Gemcitabine, gemcitabine]?
**A.** Body Weight (no tumor) Dn ([1]; Dn, end of test): 22.65 g; Body Weight (with tumor) d0 ([1]; d0, start of administration): 21.38 g; Body Weight (with tumor) dn ([1]; dn, end of test): 25.50 g; IC50 (HT-29 Cell line; Homo sapiens, HT-29, 72 h, read-out: IC50 Drug alone): 70 nM; IC50 (HT-29 Cell line; read-out: IC50 +10 nM AZD7762, HT-29, SRB, 72 hours, drug +10 nM AZD7762): 30 nM; IC50 (HT-29 Cell line; read-out: IC50 +100 nM AZD7762, HT-29, SRB, 72 hours, drug +100 nM AZD7762): 5 nM; IC50 (HT-29 Cell line; read-out: IC50 +1 μM XC608, HT-29, SRB, 72 hours, drug +1 μM XC608): 3 nM; TV Dn (human ovarian cancer; Dn, end of test, i.v.): 1734.05 ± 586.49 mm^3; RTV dn (human ovarian cancer; Vt/V0 at dn): 12.07; TV d0 (human ovarian cancer; d0, start of administration): 143.67 ± 44.38 mm^3; Tumor Weight dn (human ovarian cancer; isolated tumors at dn): 2.85 g; Tumor RI % dn (human ovarian cancer; rate of tumor inhibition by tumor weight versus control): 19.72%; T/C % Dn (human ovarian cancer; treatment RTV/control RTV, *p < 0.05, **p < 0.01): 82.27%; TC (%) (Human colon cancer HT-99): 45%
